Experimental data published in patent publication US5684151A, “1-arylsulphonyl, arylcarbonyl and 1-arylphosphonyl-3-phenyl-1,4,5,6-tetrahydropyridazines” (priority 1995, dated 1997).
Where two headings read alike, the source gives them in different places.

Tests used:
[1] = target: T1, progestin receptor from rabbit uterus (Oryctolagus cuniculus, UniProt P06186); experiment: Progestin receptor binding (3H-R5020 displacement); conditions: rabbit uterine cytosol, 4° C., 18 h, read-out: IC50: Binding affinity for the progestin receptor from rabbit uterus
T1 construct: Cytosolic progestin receptor were obtained by mixing rabbit uterine tissue with a Tris buffer; from tissue; host or cells: rabbit uterus cytosol
T1 sequence (P06186 whole entry): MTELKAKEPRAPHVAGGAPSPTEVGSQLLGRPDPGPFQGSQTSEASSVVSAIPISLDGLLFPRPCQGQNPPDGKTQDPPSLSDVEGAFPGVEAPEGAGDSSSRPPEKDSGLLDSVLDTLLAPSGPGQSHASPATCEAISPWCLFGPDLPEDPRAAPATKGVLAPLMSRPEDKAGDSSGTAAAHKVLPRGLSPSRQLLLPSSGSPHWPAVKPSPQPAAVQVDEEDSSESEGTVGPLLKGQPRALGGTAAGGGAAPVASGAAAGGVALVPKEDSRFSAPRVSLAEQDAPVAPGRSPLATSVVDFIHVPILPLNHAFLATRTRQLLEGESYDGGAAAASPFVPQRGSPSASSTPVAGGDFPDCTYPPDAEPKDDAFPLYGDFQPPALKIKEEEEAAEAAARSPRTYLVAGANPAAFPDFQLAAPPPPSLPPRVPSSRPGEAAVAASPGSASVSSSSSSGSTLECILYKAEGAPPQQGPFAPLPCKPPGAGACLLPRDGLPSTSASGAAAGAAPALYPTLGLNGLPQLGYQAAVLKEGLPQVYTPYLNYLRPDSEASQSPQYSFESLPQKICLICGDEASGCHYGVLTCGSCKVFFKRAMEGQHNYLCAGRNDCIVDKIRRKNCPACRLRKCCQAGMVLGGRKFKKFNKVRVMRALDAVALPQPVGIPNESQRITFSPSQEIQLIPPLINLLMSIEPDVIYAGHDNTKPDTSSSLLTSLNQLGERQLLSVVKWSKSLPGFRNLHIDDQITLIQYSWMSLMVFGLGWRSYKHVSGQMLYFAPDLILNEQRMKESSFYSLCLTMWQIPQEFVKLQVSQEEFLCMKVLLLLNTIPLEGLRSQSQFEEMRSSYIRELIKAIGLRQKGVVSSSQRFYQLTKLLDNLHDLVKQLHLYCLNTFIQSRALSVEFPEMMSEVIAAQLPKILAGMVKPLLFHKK
In short: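 Rabbit uterine cytosol in Tris buffer pH 7.4 with EDTA, DTT and molybdate was incubated with 3H-R5020 and test compound (5% DMSO final) at 4 °C for about 18 h. Bound ligand was separated with dextran-coated charcoal and counted by scintillation; IC50 is 50% radioligand displacement, with nonspecific binding defined by excess unlabelled ligand.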

[2] = system: Human T47D breast carcinoma cells; experiment: Ex vivo progestational test (T47D proliferation); type: cell-based; conditions: SC200, 3H-thymidine incorporation
Experimental: The progestational activity of the compounds was accessed by their ability to stimulate proliferation of human breast carcinoma cells. Proliferation was measured as the ability to stimulate ^3 H-thymidine incorporation into these cells in vitro. Human T47D breast carcinoma cells (American Type Tissue Collection #133-HTB) were maintained in media consisting or RPMI 1640 supplemented with 10% fetal bovine serum, 10 ug/ml insulin, 10 U/ml pennicillin, 100 ug/ml streptomycin, and 2 mM L-glutamine. Monolayer cell cultures were trypsinized and washed in assay media consisting of phenol red-free RPMI 1640 supplemented with 5% charcoal-stripped, fetal bovine serum, and the other ingredients listed above. Cells were then plated in a 96-well plate. After a 48-hour incubation period at 37° C., the conditioned media was removed and replaced with fresh media containing test compounds in DMSO (0.1% DMSO final concentration). The cell cultures were incubated for 18 to 20 hours at 37° C. ^3 H-thymidine was then added to each well and the cell cultures were incubated at 37° C. for an additional 4 hours. Labelling was stopped by addition of un labelled thymidine. The cultures were washed twice, trypsinized and then harvested onto a filter mat. Incorporated ^3 -H-thymidine was measured by liquid scintillation counting. Data was expressed as a percent stimulation above control level which was set at 100%. An SC200 value was calculated as the concentration of test material needed to stimulate ^3 H-thymidine incorporation 200% of control.
Aspects of the application of the procedure used are described in the following: C. Christensen, D. Gunter, D. Saunders and V. Malviya, Gynecol. Oncol., 28, 25 (1987); J. Puzas, R. Drivdahl, G. Howard and D. Baylink, Proc. Soc. Exp. Biol. Med., 166, 113 (1981); and I. Keydar, L. Chen, S. Karby, F. Weiss, J. Delarea, M. Raduy, S. Chaitcik and H. Brenner, Eur. J. Cancer, 15, 659 (1979)

rabbit endometrium [3] = experiment: In vivo progestational test (Clauberg Test); design: species or system rabbit (immature New Zealand White female); key: Active in Clauberg Assay; Active in McGinty Assay; conditions: oral or parenteral, daily for five days
Experimental: Progestational activity was also measured in vivo by the abiity to stimulate the rabbit endometrium after either oral or parenteral administration.
[…]. Starting on the 7th day, the rabbits were given the test material daily for five days. The rabbits were sacrificed approximately 24 hours after the last administration, and the uteri were excised, trimmed and weighed. Portions of both uterine horns were fixed in 10% neutral formalin, sectioned at 6μ and stained with hematoxylin and eosin. Progestational activity was assessed as described above for the McGinty Test.

rabbit endometrium [4] = experiment: In vivo progestational test (McGinty Test); design: species or system rabbit (immature New Zealand White female); key: Active in Clauberg Assay; Active in McGinty Assay; conditions: injection into uterine horn, 72 hours
Experimental: Progestational activity was measured in vivo by the ability to stimulate the rabbit endometrium after injection into the uterine horn.
Immature New Zealand White female rabbits were injected subcutaneously for 6 days with 5.0 μg of 17β-estradiol per day. On the 7th day the rabbits were anesthetized, the abdomen opened and a uterine horn exposed. Two ligatures were placed around a segment of the uterus 3-4 cm long, leaving the major blood vessels outside the ties.
The upper ligature was tied tightly, and the lower one was left loose. A needle attached to a syringe was injected in the uterus below the second ligature and up into the area between the two ligatures. As the test material was injected, the ligature was tightened and held tight so that the needle was withdrawn without the loss of fluid. The second ligature was secured and the abdomen closed.
The rabbits were sacrificed approximately 72 hours after the injection. The uteri were removed, fixed in 10% buffered formalin, sectioned at 6μ, and stained with hematoxylin and eosin. The evaluation for endometrial proliferation was made according to a McPhail Index. Each slide was graded for each rabbit on a 0 (no response)-4 (maximum response) scale.

[5] = system: mouse (MC3T3-E1) and human (TE-85) osteoblast-line cells; type: cell-based
In short: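 MC3T3-E1 or TE-85 cells were plated overnight in DMEM/25 mM HEPES/10% FBS and then preincubated 24 h in 0.1% FBS. Compounds were added for 20 h, followed by a 4 h pulse of 0.4 μCi ^3H-thymidine. Incorporated radioactivity served as the proliferation index, expressed as % of control (control = 100%).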

mature female rabbits = experiment: Additional test to determine bone growth activity (bone density by dual X-ray densitometry); type: in vivo, rabbit; conditions: oral once daily, 12 weeks, vs vehicle treated control
Experimental: Test compounds were orally administered once daily to mature female rabbits for 12 weeks. Bone density was measured by dual X-ray densitometry and results were expressed as % base line bone mineral content.

Structure (SMILES) | IC50 [1] | T47D: Concentration to elicit a 200% increase in T47D Human breast cell proliferation [2] | In-vivo: Active in Clauberg Assay (rabbit endometrium [3]) | In-vivo: Active in McGinty Assay (rabbit endometrium [4]) | Osteoblast Cell Proliferation, 3H-thymidine incorporation vs control (100%) ([5]; 10^-6) | Osteoblast Cell Proliferation, 3H-thymidine incorporation vs control (100%) ([5]; 10^-7) | Osteoblast Cell Proliferation, 3H-thymidine incorporation vs control (100%) ([5]; 10^-8) | Osteoblast Cell Proliferation, 3H-thymidine incorporation vs control (100%) ([5]; 10^-9) | Osteoblast Cell Proliferation, 3H-thymidine incorporation vs control (100%) ([5]; 10^-10) | bone mineral content (mature female rabbits)
O=S(=O)(c1ccc(I)cc1)N1CCCC(c2ccc(Cl)c(C(F)(F)F)c2)=N1 [Compound 1, 3-(4-Chloro-3-trifluoromethylphenyl)-1-(4-iodobenzenesulfonyl)-1,4,5,6-tetrahydropyridazine] | 1.33 nM | 46 | C | M | – | – | – | – | – | –
O=S(=O)(c1ccc(Cl)cc1)N1CCCC(c2ccc(Cl)c(Cl)c2)=N1 [Compound 12, 3-(3,4-dichlorophenyl)-1-(4-chlorobenzenesulphonyl)-1,4,5,6-tetrahydropyridazine] | 1 nM | 153 | C | M | 118% | 115% | 114% | 131% | 135% | –
O=S(=O)(c1cccc(C(F)(F)F)c1)N1CCCC(c2ccc(Cl)cc2)=N1 [Compound 35] | 3.01 nM | – | – | M | 82% | 101% | 123% | 150% | 154% | –
O=S(=O)(c1ccc(Br)cc1)N1CCCC(c2ccc(Cl)c(Cl)c2)=N1 [Compound 39, 3-(3,4-dichlorophenyl)-1-(4-bromobenzenesulphonyl)-1,4,5,6-tetrahydropyridazine] | 0.7 nM | 100 | C | M | 92% | 94% | 84% | 115% | 99% | –
O=S(=O)(c1ccc(I)cc1)N1CCCC(c2ccc(Cl)c(Cl)c2)=N1 [Compound 40, 3-(3,4-dichlorophenyl)-1-(4-iodobenzenesulphonyl)-1,4,5,6-tetrahydropyridazine] | 1.18 nM | 26 | C | M | 78% | 90% | 71% | 58% | 53% | –
Cc1ccc(S(=O)(=O)N2CCCC(c3ccc(Cl)c(Cl)c3)=N2)cc1 [Compound 41, 3-(3,4-dichlorophenyl)-1-(4-methylbenzenesulphonyl)-1,4,5,6-tetrahydropyridazine] | 1.96 nM | 4000 | – | M | 138% | 158% | 166% | 144% | 116% | –
O=S(=O)(c1ccc2ccccc2c1)N1CCCC(c2ccc(Cl)c(Cl)c2)=N1 [Compound 42, 3-(3,4-dichlorophenyl)-1-(2-naphthylenesulfonyl)-1,4,5,6-tetrahydropyridazine] | 0.97 nM | 321 | – | M | 135% | 144% | 155% | 146% | 166% | –
O=S(=O)(c1ccc(Cl)cc1)N1CCCC(c2ccc(Cl)c(C(F)(F)F)c2)=N1 [Compound 77] | 1.47 nM | 286 | C | M | – | – | – | – | – | –
O=S(=O)(c1ccc2c(c1)CCCC2)N1CCCC(c2ccc(Cl)c(C(F)(F)F)c2)=N1 [Compound 78] | 2.44 nM | 10000 | C | M | – | – | – | – | – | –
O=S(=O)(c1cc(Cl)cc(Cl)c1)N1CCCC(c2ccc(Cl)c(C(F)(F)F)c2)=N1 [Compound 80] | 0.79 nM | 85 | – | M | – | – | – | – | – | –
Cc1ccc(S(=O)(=O)N2CCCC(c3ccc(Cl)c(C(F)(F)F)c3)=N2)cc1 [Compound 82] | 2.95 nM | 608 | – | M | – | – | – | – | – | –
O=C(c1ccc(Cl)c(Cl)c1)N1CCCC(c2cccs2)=N1 [Compound 280, 3-(2-Thienyl)-1-(3,4-dichlorobenzoyl)-1,4,5,6-tetrahydropyridazine] | – | – | – | – | – | – | – | – | – | significant increase in bone mineral content
